We go through 16 compounds from US7981903B2, “2-[2-{phenylamino}-1H-pyrrolo[2,3-D]pyrimidin-4-yl)amino] benzamide derivatives as IGF-1R inhibitors for the treatment of cancer” (GlaxoSmithKline LLC, priority 2007, dated 2011).

One experiment concerns NCI-H929. Briefly: Inhibition of cell proliferation (CellTiter-Glo or InCell analyzer), NCI-H929. It counts as cell-based. The conditions noted are these: Homo sapiens, 72 h / 3 days, values given as IC50 category. Summed up:
In one
(Cellular ATP, detected with luciferase, serves as a proxy for viable cell number.)

The target in the next experiment is ALK (Homo sapiens, UniProt Q9UM73). Kind of experiment: ALK enzyme assay (HTRF). It is filed as biochemical. The conditions noted are these: 0.25 nM ALK, 15.0 μM ATP, values given as pIC50 category. Summed up: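 Final compound range 0.00017 to 10 μM (twelve 1:3 dilutions). Kinase reaction with ATP and biotinylated synthetic peptide runs 120 min at 20° C, stopped with EDTA; phosphotyrosine detected by HTRF after 60 min. Inhibition referenced to DMSO (1%) and EDTA (0.1 M) controls, curve-fitted.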
Chain of ALK (Q9UM73 19-1620): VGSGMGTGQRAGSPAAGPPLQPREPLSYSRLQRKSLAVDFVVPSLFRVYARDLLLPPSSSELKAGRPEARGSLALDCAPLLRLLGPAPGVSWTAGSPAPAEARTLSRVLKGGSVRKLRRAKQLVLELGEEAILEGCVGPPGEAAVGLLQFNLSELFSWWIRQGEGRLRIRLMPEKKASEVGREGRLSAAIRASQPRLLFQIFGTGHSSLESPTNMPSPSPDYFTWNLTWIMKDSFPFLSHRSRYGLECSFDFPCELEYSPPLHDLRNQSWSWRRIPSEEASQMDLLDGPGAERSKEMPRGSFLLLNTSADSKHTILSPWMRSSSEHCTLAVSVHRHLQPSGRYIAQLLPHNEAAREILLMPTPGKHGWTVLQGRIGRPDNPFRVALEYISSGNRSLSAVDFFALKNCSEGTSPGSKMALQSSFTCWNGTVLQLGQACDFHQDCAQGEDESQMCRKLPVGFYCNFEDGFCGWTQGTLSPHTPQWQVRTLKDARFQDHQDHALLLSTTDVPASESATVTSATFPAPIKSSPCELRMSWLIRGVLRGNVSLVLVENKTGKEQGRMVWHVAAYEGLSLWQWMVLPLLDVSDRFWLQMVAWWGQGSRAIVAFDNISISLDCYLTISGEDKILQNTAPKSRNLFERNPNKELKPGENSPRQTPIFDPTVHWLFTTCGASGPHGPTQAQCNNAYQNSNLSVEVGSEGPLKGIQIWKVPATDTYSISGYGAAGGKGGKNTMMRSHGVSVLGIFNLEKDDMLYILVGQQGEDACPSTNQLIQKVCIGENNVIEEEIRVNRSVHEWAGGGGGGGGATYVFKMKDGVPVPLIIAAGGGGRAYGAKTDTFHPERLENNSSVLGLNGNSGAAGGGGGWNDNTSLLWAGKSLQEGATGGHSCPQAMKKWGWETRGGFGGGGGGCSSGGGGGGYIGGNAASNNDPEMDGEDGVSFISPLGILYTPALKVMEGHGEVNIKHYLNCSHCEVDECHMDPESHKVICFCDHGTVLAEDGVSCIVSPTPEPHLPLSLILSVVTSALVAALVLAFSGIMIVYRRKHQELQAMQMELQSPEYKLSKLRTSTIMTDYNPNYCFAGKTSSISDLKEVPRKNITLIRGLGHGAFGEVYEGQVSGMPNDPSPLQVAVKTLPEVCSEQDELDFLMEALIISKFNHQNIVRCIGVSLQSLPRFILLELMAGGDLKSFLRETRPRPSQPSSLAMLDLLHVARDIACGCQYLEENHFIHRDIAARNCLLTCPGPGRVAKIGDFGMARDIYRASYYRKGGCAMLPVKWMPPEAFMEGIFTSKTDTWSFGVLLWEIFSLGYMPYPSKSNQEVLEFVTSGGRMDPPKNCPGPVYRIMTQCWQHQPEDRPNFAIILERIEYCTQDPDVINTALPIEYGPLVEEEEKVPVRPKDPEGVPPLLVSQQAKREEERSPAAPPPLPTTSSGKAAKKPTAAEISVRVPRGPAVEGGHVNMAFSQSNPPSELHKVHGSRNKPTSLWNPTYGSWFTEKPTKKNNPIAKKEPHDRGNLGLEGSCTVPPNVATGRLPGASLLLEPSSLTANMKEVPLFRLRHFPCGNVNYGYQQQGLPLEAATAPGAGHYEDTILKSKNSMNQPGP
Background: TR-FRET usually uses a lanthanide donor and a delayed reading to cut background.

Another experiment concerns Colo205. Briefly: Inhibition of cell proliferation (CellTiter-Glo or InCell analyzer), Colo205. It is filed as cell-based. The settings on record: Homo sapiens, COLO 205, 72 h / 3 days, values given as IC50 category. Summed up:
In one

The IC50 is the midpoint of a concentration-inhibition curve. With `CNC(=O)c1c(F)cc(F)cc1Nc1nc(Nc2cc3c(cc2OC)CCCN3C(=O)CN2CCCC2)nc2[nH]ccc12` [Example 221, 2,4-difluoro-N-methyl-6-[(2-{[6-(methyloxy)-1-(1-pyrrolidinylacetyl)-1,2,3,4-tetrahydro-7-quinolinyl]amino}-1H-pyrrolo[2,3-d]pyrimidin-4-yl)amino]benzamide], the IC50 in the experiment with NCI-H929 is less than 250 nM; at ALK, 1.26 to 3.98 nM; in the experiment with Colo205 it was 250 to 1000 nM.
Consider `COc1cc2c(cc1Nc1nc(Nc3ccc(F)c(F)c3C(=O)NC(C)C)c3cc[nH]c3n1)N(C(=O)CN(C)C)CC2` [Example 161, 6-[(2-{[1-(N,N-dimethylglycyl)-5-(methyloxy)-2,3-dihydro-1H-indol-6-yl]amino}-1H-pyrrolo[2,3-d]pyrimidin-4-yl)amino]-2,3-difluoro-N-(1-methylethyl)benzamide], for which the IC50 was 250 to 1000 nM with NCI-H929, 1.26 to 3.98 nM against ALK and more than 1000 nM in the experiment with Colo205.
In the same order, the values of `COc1cc(C2CCN(C(C)C)CC2)ccc1Nc1nc(Nc2ccc(F)cc2C(N)=O)c2cc[nH]c2n1` [Example 58, 5-fluoro-2-[(2-{[4-[1-(1-methylethyl)-4-piperidinyl]-2-(methyloxy)phenyl]amino}-1H-pyrrolo[2,3-d]pyrimidin-4-yl)amino]benzamide] are less than 250 nM, 0.251 to 1 nM and less than 250 nM.
In the same order, the values of `CNC(=O)c1c(F)cccc1Nc1nc(Nc2cc(N(C)C(=O)CN(C)C)ccc2OC)nc2[nH]ccc12` [Example 242, 2-[(2-{[5-[(N,N-dimethylglycyl)(methyl)amino]-2-(methyloxy)phenyl]amino}-1H-pyrrolo[2,3-d]pyrimidin-4-yl)amino]-6-fluoro-N-methylbenzamide] are more than 1000 nM, 5.01 to 200 nM and more than 1000 nM.
With `COc1cc2c(cc1Nc1nc(Nc3cccc(F)c3C(N)=O)c3cc[nH]c3n1)CN(C)CC2` [Example 121, 2-fluoro-6-[(2-{[2-methyl-6-(methyloxy)-1,2,3,4-tetrahydro-7-isoquinolinyl]amino}-1H-pyrrolo[2,3-d]pyrimidin-4-yl)amino]benzamide], the concentration for half-maximal inhibition (IC50) was less than 250 nM with NCI-H929, 1.26 to 3.98 nM against ALK and 250 to 1000 nM in the experiment on Colo205.
As to `CCCN(CCC)[C@@H](C)C(=O)N1CCc2cc(OC)c(Nc3nc(Nc4cccc(F)c4C(=O)NC)c4cc[nH]c4n3)cc21` [Example 191, 2-[(2-{[1-(N,N-dipropyl-L-alanyl)-5-(methyloxy)-2,3-dihydro-1H-indol-6-yl]amino}-1H-pyrrolo[2,3-d]pyrimidin-4-yl)amino]-6-fluoro-N-methylbenzamide], the values for the IC50 in the experiment on NCI-H929, on ALK and in the experiment with Colo205 were more than 1000 nM, 5.01 to 200 nM and more than 1000 nM, respectively.
On to `COc1cc2c(cc1Nc1nc(Nc3cccc4c3C(=O)NC4)c3cc[nH]c3n1)N(C(=O)CN(C)C)CC2` [Example 200, 7-[(2-{[1-(N,N-dimethylglycyl)-5-(methyloxy)-2,3-dihydro-1H-indol-6-yl]amino}-1H-pyrrolo[2,3-d]pyrimidin-4-yl)amino]-2,3-dihydro-1H-isoindol-1-one], for which the IC50 in the experiment on NCI-H929 was less than 250 nM; against ALK it was 1.26 to 3.98 nM; in the experiment with Colo205 it was less than 250 nM.
On to `CNC(=O)c1c(F)cccc1Nc1nc(Nc2cc3c(cc2OC)CCN(C(C)C)C3)nc2[nH]ccc12` [Example 235, 2-fluoro-N-methyl-6-[(2-{[2-(1-methylethyl)-6-(methyloxy)-1,2,3,4-tetrahydro-7-isoquinolinyl]amino}-1H-pyrrolo[2,3-d]pyrimidin-4-yl)amino]benzamide], for which the IC50 in the experiment with NCI-H929 was less than 250 nM; against ALK, 1.26 to 3.98 nM; with Colo205, more than 1000 nM.
For the compound `CCC(C)N1CCc2cc(OC)c(Nc3nc(Nc4cccc(F)c4C(=O)NC)c4cc[nH]c4n3)cc2C1` (stereo not drawn) [Example 238, 2-fluoro-N-methyl-6-[(2-{[6-(methyloxy)-2-(1-methylpropyl)-1,2,3,4-tetrahydro-7-isoquinolinyl]amino}-1H-pyrrolo[2,3-d]pyrimidin-4-yl)amino]benzamide], the values for the IC50 in the experiment with NCI-H929, against ALK and in the experiment on Colo205 were 250 to 1000 nM, 1.26 to 3.98 nM and more than 1000 nM, respectively.
Take `COc1cc2c(cc1Nc1nc(Nc3cccc(F)c3C(N)=O)c3cc[nH]c3n1)CN(C(=O)CCN(C)C)CC2` [Example 230, 2-[(2-{[2-(N,N-dimethyl-β-alanyl)-6-(methyloxy)-1,2,3,4-tetrahydro-7-isoquinolinyl]amino}-1H-pyrrolo[2,3-d]pyrimidin-4-yl)amino]-6-fluorobenzamide]: the figures for the IC50 in the experiment with NCI-H929, against ALK and with Colo205 were 250 to 1000 nM, 5.01 to 200 nM and more than 1000 nM, respectively.
In the same order, the values of `COc1cc2c(cc1Nc1nc(Nc3cc(F)cc(F)c3C(N)=O)c3cc[nH]c3n1)NCCC2` [Example 220, 2,4-difluoro-6-[(2-{[6-(methyloxy)-1,2,3,4-tetrahydro-7-quinolinyl]amino}-1H-pyrrolo[2,3-d]pyrimidin-4-yl)amino]benzamide] are more than 1000 nM, 5.01 to 200 nM and more than 1000 nM.
`COc1cc2c(cc1Nc1nc(Nc3cccc(F)c3C(N)=O)c3cc[nH]c3n1)N(C(=O)Cn1ccnc1)CC2` [Example 145, 2-fluoro-6-[(2-{[1-(1H-imidazol-1-ylacetyl)-5-(methyloxy)-2,3-dihydro-1H-indol-6-yl]amino}-1H-pyrrolo[2,3-d]pyrimidin-4-yl)amino]benzamide]: the half-inhibitory concentration (IC50) is more than 1000 nM in the experiment on NCI-H929, 5.01 to 200 nM against ALK and more than 1000 nM with Colo205.
For the compound `COc1cc2c(cc1Nc1nc(Nc3cccc(F)c3C(N)=O)c3cc[nH]c3n1)N(C(C)=O)CC2` [Example 134, 2-[(2-{[1-acetyl-5-(methyloxy)-2,3-dihydro-1H-indol-6-yl]amino}-1H-pyrrolo[2,3-d]pyrimidin-4-yl)amino]-6-fluorobenzamide], the IC50 in the experiment with NCI-H929 is less than 250 nM; at ALK it was 1.26 to 3.98 nM; with Colo205, 250 to 1000 nM.
Take `COc1cc(N2CCN(C(C)C)CC2)c(C)cc1Nc1nc(Nc2cc(F)cc(F)c2C(N)=O)c2cc[nH]c2n1` [Example 91, 2,4-difluoro-6-[(2-{[5-methyl-4-[4-(1-methylethyl)-1-piperazinyl]-2-(methyloxy)phenyl]amino}-1H-pyrrolo[2,3-d]pyrimidin-4-yl)amino]benzamide]: the IC50 with NCI-H929 is less than 250 nM; against ALK it was 0.251 to 1 nM; in the experiment on Colo205 it was less than 250 nM.
For `CCN(C)CC(=O)N1CCc2cc(OC)c(Nc3nc(Nc4cccc(F)c4C(=O)NC)c4cc[nH]c4n3)cc21` [Example 165, 2-[(2-{[1-(N-ethyl-N-methylglycyl)-5-(methyloxy)-2,3-dihydro-1H-indol-6-yl]amino}-1H-pyrrolo[2,3-d]pyrimidin-4-yl)amino]-6-fluoro-N-methylbenzamide], the IC50 was 250 to 1000 nM in the experiment on NCI-H929, 1.26 to 3.98 nM on ALK and more than 1000 nM with Colo205.
Turning to `COc1cc2c(cc1Nc1nc(Nc3cccc(F)c3C(N)=O)c3cc[nH]c3n1)N(C(=O)CN1CCC1)CC2` [Example 143, 2-[(2-{[1-(1-azetidinylacetyl)-5-(methyloxy)-2,3-dihydro-1H-indol-6-yl]amino}-1H-pyrrolo[2,3-d]pyrimidin-4-yl)amino]-6-fluorobenzamide], the 50% inhibitory concentration (IC50) with NCI-H929 is less than 250 nM; at ALK it was 1.26 to 3.98 nM; in the experiment with Colo205, 250 to 1000 nM.
